# Measured values reported in ChEMBL document CHEMBL2311510, “A new single-photon emission computed tomography (SPECT) imaging agent for serotonin transporters: [(125)I]Flip-IDAM, (2-((2-((dimethylamino)methyl)-4-iodophenyl)thio)phenyl)methanol” (Bioorg Med Chem Lett, 2013).
# Key:
# Blood [1] = experiment: Biodistribution in Sprague-Dawley rat blood assessed as compound level per organ at 11 uCi, iv measured 30 mins post compound dose; type: ADME, organism-based; conditions: in vivo, 0.5 h
# Bone [2] = experiment: Biodistribution in Sprague-Dawley rat bone assessed as compound level per organ at 11 uCi, iv measured 30 mins post compound dose; type: ADME, organism-based, Bone element; conditions: in vivo, 0.5 h
# Heart = experiment: Biodistribution in Sprague-Dawley rat heart assessed as compound level per organ at 11 uCi, iv measured 120 mins post compound dose; type: ADME, organism-based; conditions: in vivo, 2 h
# Lung [3] = experiment: Biodistribution in Sprague-Dawley rat lung assessed as compound level per organ at 11 uCi, iv measured 30 mins post compound dose; type: ADME, organism-based; conditions: in vivo, 0.5 h
# Nucleic Acid [4] = experiment: Ratio of drug level in hypothalamus to cerebellum in Sprague-Dawley rat at 11 uCi, iv measured 2 mins post compound dose; type: ADME, organism-based; conditions: in vivo
# Lung [5] = experiment: Biodistribution in Sprague-Dawley rat lung assessed as compound level per organ at 11 uCi, iv measured 120 mins post compound dose; type: ADME, organism-based; conditions: in vivo, 2 h
# Brain [6] = experiment: Biodistribution in Sprague-Dawley rat brain at 11 uCi, iv measured 2 mins post compound dose; type: ADME, organism-based; conditions: in vivo
# Nucleic Acid [7] = experiment: Ratio of drug level in hypothalamus to cerebellum in Sprague-Dawley rat at 11 uCi, iv measured 120 mins post compound dose; type: ADME, organism-based; conditions: in vivo, 2 h
# Hippocampus [8] = experiment: Biodistribution in Sprague-Dawley rat hippocampus at 11 uCi, iv measured 30 mins post compound dose; type: ADME, organism-based; conditions: in vivo, 0.5 h
# Hippocampus [9] = experiment: Biodistribution in Sprague-Dawley rat hippocampus at 11 uCi, iv measured 120 mins post compound dose; type: ADME, organism-based; conditions: in vivo, 2 h
# Lung [10] = experiment: Biodistribution in Sprague-Dawley rat lung assessed as compound level per organ at 11 uCi, iv measured 60 mins post compound dose; type: ADME, organism-based; conditions: in vivo, 1 h
# Nucleic Acid [11] = experiment: Ratio of drug level in striatum to cerebellum in Sprague-Dawley rat at 11 uCi, iv measured 60 mins post compound dose; type: ADME, organism-based; conditions: in vivo, 1 h
# Striatum [12] = experiment: Biodistribution in Sprague-Dawley rat striatum at 11 uCi, iv measured 60 mins post compound dose; type: ADME, organism-based; conditions: in vivo, 1 h
# Pancreas [13] = experiment: Biodistribution in Sprague-Dawley rat pancreas at 11 uCi, iv measured 2 mins post compound dose; type: ADME, organism-based; conditions: in vivo
# Bone [14] = experiment: Biodistribution in Sprague-Dawley rat bone assessed as compound level per organ at 11 uCi, iv measured 120 mins post compound dose; type: ADME, organism-based, Bone element; conditions: in vivo, 2 h
# Hippocampus [15] = experiment: Biodistribution in Sprague-Dawley rat hippocampus at 11 uCi, iv measured 60 mins post compound dose; type: ADME, organism-based; conditions: in vivo, 1 h
# Zone of skin [16] = experiment: Biodistribution in Sprague-Dawley rat skin assessed as compound level per organ at 11 uCi, iv measured 30 mins post compound dose; type: ADME, organism-based; conditions: in vivo, 0.5 h
# Spleen [17] = experiment: Biodistribution in Sprague-Dawley rat spleen assessed as compound level per organ at 11 uCi, iv measured 30 mins post compound dose; type: ADME, organism-based; conditions: in vivo, 0.5 h
# Kidney [18] = experiment: Biodistribution in Sprague-Dawley rat kidney at 11 uCi, iv measured 30 mins post compound dose; type: ADME, organism-based; conditions: in vivo, 0.5 h
# Cerebellum [19] = experiment: Biodistribution in Sprague-Dawley rat cerebellum at 11 uCi, iv measured 60 mins post compound dose; type: ADME, organism-based; conditions: in vivo, 1 h
# Pancreas [20] = experiment: Biodistribution in Sprague-Dawley rat pancreas assessed as compound level per organ at 11 uCi, iv measured 60 mins post compound dose; type: ADME, organism-based; conditions: in vivo, 1 h
# Nucleic Acid [21] = experiment: Ratio of drug level in hippocampus to cerebellum in Sprague-Dawley rat at 11 uCi, iv measured 120 mins post compound dose; type: ADME, organism-based; conditions: in vivo, 2 h
# Liver [22] = experiment: Biodistribution in Sprague-Dawley rat liver at 11 uCi, iv measured 2 mins post compound dose; type: ADME, organism-based; conditions: in vivo
# Zone of skin [23] = experiment: Biodistribution in Sprague-Dawley rat skin at 11 uCi, iv measured 30 mins post compound dose; type: ADME, organism-based; conditions: in vivo, 0.5 h
# Blood [24] = experiment: Biodistribution in Sprague-Dawley rat blood at 11 uCi, iv measured 60 mins post compound dose; type: ADME, organism-based; conditions: in vivo, 1 h
# Cerebellum [25] = experiment: Biodistribution in Sprague-Dawley rat cerebellum at 11 uCi, iv measured 2 mins post compound dose; type: ADME, organism-based; conditions: in vivo
# Cortex = experiment: Biodistribution in Sprague-Dawley rat cortex at 11 uCi, iv measured 60 mins post compound dose; type: ADME, organism-based; conditions: in vivo, 1 h
# Liver [26] = experiment: Biodistribution in Sprague-Dawley rat liver at 11 uCi, iv measured 60 mins post compound dose; type: ADME, organism-based; conditions: in vivo, 1 h
# Lung [27] = experiment: Biodistribution in Sprague-Dawley rat lung at 11 uCi, iv measured 60 mins post compound dose; type: ADME, organism-based; conditions: in vivo, 1 h
# Blood [28] = experiment: Biodistribution in Sprague-Dawley rat blood at 11 uCi, iv measured 120 mins post compound dose; type: ADME, organism-based; conditions: in vivo, 2 h
# Spleen [29] = experiment: Biodistribution in Sprague-Dawley rat spleen assessed as compound level per organ at 11 uCi, iv measured 2 mins post compound dose; type: ADME, organism-based; conditions: in vivo
# Striatum [30] = experiment: Biodistribution in Sprague-Dawley rat striatum at 11 uCi, iv measured 2 mins post compound dose; type: ADME, organism-based; conditions: in vivo
# Spleen [31] = experiment: Biodistribution in Sprague-Dawley rat spleen assessed as compound level per organ at 11 uCi, iv measured 120 mins post compound dose; type: ADME, organism-based; conditions: in vivo, 2 h
# Kidney [32] = experiment: Biodistribution in Sprague-Dawley rat kidney assessed as compound level per organ at 11 uCi, iv measured 120 mins post compound dose; type: ADME, organism-based; conditions: in vivo, 2 h
# Muscle tissue [33] = experiment: Biodistribution in Sprague-Dawley rat muscle at 11 uCi, iv measured 30 mins post compound dose; type: ADME, organism-based; conditions: in vivo, 0.5 h
# Pancreas [34] = experiment: Biodistribution in Sprague-Dawley rat pancreas assessed as compound level per organ at 11 uCi, iv measured 120 mins post compound dose; type: ADME, organism-based; conditions: in vivo, 2 h
# Striatum [35] = experiment: Biodistribution in Sprague-Dawley rat striatum at 11 uCi, iv measured 30 mins post compound dose; type: ADME, organism-based; conditions: in vivo, 0.5 h
# Brain [36] = experiment: Biodistribution in Sprague-Dawley rat rest of brain at 11 uCi, iv measured 2 mins post compound dose; type: ADME, organism-based; conditions: in vivo
# Bone [37] = experiment: Biodistribution in Sprague-Dawley rat bone assessed as compound level per organ at 11 uCi, iv measured 2 mins post compound dose; type: ADME, organism-based, Bone element; conditions: in vivo
# Spleen [38] = experiment: Biodistribution in Sprague-Dawley rat spleen at 11 uCi, iv measured 2 mins post compound dose; type: ADME, organism-based; conditions: in vivo
# Blood [39] = experiment: Biodistribution in Sprague-Dawley rat blood at 11 uCi, iv measured 2 mins post compound dose; type: ADME, organism-based; conditions: in vivo
# Liver [40] = experiment: Biodistribution in Sprague-Dawley rat liver assessed as compound level per organ at 11 uCi, iv measured 2 mins post compound dose; type: ADME, organism-based; conditions: in vivo
# Bone [41] = experiment: Biodistribution in Sprague-Dawley rat bone assessed as compound level per organ at 11 uCi, iv measured 60 mins post compound dose; type: ADME, organism-based, Bone element; conditions: in vivo, 1 h
# Pancreas [42] = experiment: Biodistribution in Sprague-Dawley rat pancreas assessed as compound level per organ at 11 uCi, iv measured 2 mins post compound dose; type: ADME, organism-based; conditions: in vivo
# Zone of skin [43] = experiment: Biodistribution in Sprague-Dawley rat skin at 11 uCi, iv measured 60 mins post compound dose; type: ADME, organism-based; conditions: in vivo, 1 h
# Blood [44] = experiment: Biodistribution in Sprague-Dawley rat blood at 11 uCi, iv measured 30 mins post compound dose; type: ADME, organism-based; conditions: in vivo, 0.5 h
# Muscle tissue [45] = experiment: Biodistribution in Sprague-Dawley rat muscle at 11 uCi, iv measured 60 mins post compound dose; type: ADME, organism-based; conditions: in vivo, 1 h
# Spleen [46] = experiment: Biodistribution in Sprague-Dawley rat spleen at 11 uCi, iv measured 120 mins post compound dose; type: ADME, organism-based; conditions: in vivo, 2 h
# Lung [47] = experiment: Biodistribution in Sprague-Dawley rat lung at 11 uCi, iv measured 120 mins post compound dose; type: ADME, organism-based; conditions: in vivo, 2 h
# Muscle tissue [48] = experiment: Biodistribution in Sprague-Dawley rat muscle assessed as compound level per organ at 11 uCi, iv measured 30 mins post compound dose; type: ADME, organism-based; conditions: in vivo, 0.5 h
# Kidney [49] = experiment: Biodistribution in Sprague-Dawley rat kidney at 11 uCi, iv measured 60 mins post compound dose; type: ADME, organism-based; conditions: in vivo, 1 h
# Bone [50] = experiment: Biodistribution in Sprague-Dawley rat bone at 11 uCi, iv measured 120 mins post compound dose; type: ADME, organism-based, Bone element; conditions: in vivo, 2 h
smiles,measurement,setting,value
CN(C)Cc1cc([125I])ccc1Sc1ccccc1CO,Drug uptake,Blood [1],5.07 %ID
same,Drug uptake,Bone [2],0.02 %ID
same,Drug uptake,Heart,0.12 %ID
same,Drug uptake,Lung [3],1.5 %ID
same,Ratio,Nucleic Acid [4],1.02
same,Drug uptake,Lung [5],0.41 %ID
same,Drug uptake,Brain [6],1.21 % ID/g
same,Ratio,Nucleic Acid [7],1.93
same,Drug uptake,Hippocampus [8],0.66 % ID/g
same,Drug uptake,Hippocampus [9],0.08 % ID/g
same,Drug uptake,Lung [10],0.73 %ID
same,Ratio,Nucleic Acid [11],2.12
same,Drug uptake,Striatum [12],0.25 % ID/g
same,Drug uptake,Pancreas [13],1.52 % ID/g
same,Drug uptake,Bone [14],0.01 %ID
same,Drug uptake,Hippocampus [15],0.21 % ID/g
same,Drug uptake,Zone of skin [16],9.38 %ID
same,Drug uptake,Spleen [17],0.23 %ID
same,Drug uptake,Kidney [18],1.45 % ID/g
same,Drug uptake,Cerebellum [19],0.12 % ID/g
same,Drug uptake,Pancreas [20],0.1 %ID
same,Ratio,Nucleic Acid [21],1.5
same,Drug uptake,Liver [22],1.23 % ID/g
same,Drug uptake,Zone of skin [23],0.31 % ID/g
same,Drug uptake,Blood [24],0.22 % ID/g
same,Drug uptake,Cerebellum [25],1.5 % ID/g
same,Drug uptake,Cortex,0.2 % ID/g
same,Drug uptake,Liver [26],0.48 % ID/g
same,Drug uptake,Lung [27],0.42 % ID/g
same,Drug uptake,Blood [28],0.19 % ID/g
same,Drug uptake,Spleen [29],1.04 %ID
same,Drug uptake,Striatum [30],1.28 % ID/g
same,Drug uptake,Spleen [31],0.07 %ID
same,Drug uptake,Kidney [32],1.06 %ID
same,Drug uptake,Muscle tissue [33],0.21 % ID/g
same,Drug uptake,Pancreas [34],0.06 %ID
same,Drug uptake,Striatum [35],0.78 % ID/g
same,Drug uptake,Brain [36],1.14 % ID/g
same,Drug uptake,Bone [37],0.03 %ID
same,Drug uptake,Spleen [38],1.61 % ID/g
same,Drug uptake,Blood [39],0.44 % ID/g
same,Drug uptake,Liver [40],9.42 %ID
same,Drug uptake,Bone [41],0.01 %ID
same,Drug uptake,Pancreas [42],0.6 %ID
same,Drug uptake,Zone of skin [43],0.2 % ID/g
same,Drug uptake,Blood [44],0.36 % ID/g
same,Drug uptake,Muscle tissue [45],0.13 % ID/g
same,Drug uptake,Spleen [46],0.12 % ID/g
same,Drug uptake,Lung [47],0.27 % ID/g
same,Drug uptake,Muscle tissue [48],17.1 %ID
same,Drug uptake,Kidney [49],0.72 % ID/g
same,Drug uptake,Bone [50],0.16 % ID/g
